Values after ≈ are worked out from the molar mass of the structure shown. Active and inactive are the calls of the source. The rule behind the calls is not given here.
Columns and labels:
Candida albicans [1] = test: (§1) Synergetic antifungal activity against Candida albicans 9172 assessed as microbial growth inhibition incubated for 24 hrs in the presence of (S)-4-((2-(6-(4-Chlorophenyl)-1-methyl-7,8,9,10-tetrahydro-4H-benzo-(4,5)thieno[3,2-f][1,2,4]triazolo(4,3-a)(1,4)diazepin-4-yl)-acetamido)-methyl)-N-hydroxybenzamide by checkerboard microdilution method; type: functional
Candida albicans [2] = test: Antifungal activity against Candida albicans SC5314 assessed as fungal growth inhibition incubated for 24 hrs by broth dilution method; type: functional
Candida albicans [3] = test: Antibiofilm activity against FLC-resistant Candida albicans 0304103 assessed as inhibition of biofilm formation at 64 ug/mL incubated for 24 hrs by XTT reduction assay; type: functional, organism-based; conditions: dose 64.0 µg/ml
Candida albicans [4] = test: Synergetic antifungal activity against Candida albicans 0304103 assessed as microbial growth inhibition incubated for 24 hrs in the presence of (S)-4-(2-(6-(4-Chlorophenyl)-1-methyl-7,8,9,10-tetrahydro-4Hbenzo-[4,5]thieno(3,2-f)(1,2,4)triazolo(4,3-a)[1,4]diazepin-4-yl)-acetamido)-N-hydroxybenzamide by checkerboard microdilution method; type: functional
Candida albicans [5] = test: microbe, parasite or virus in culture; type: functional; conditions: 0304103
Description: Antifungal activity against Candida albicans 0304103 assessed as microbial growth inhibition

Candida albicans [6] = test: Synergetic antifungal activity against Candida albicans 0304103 assessed as microbial growth inhibition incubated for 24 hrs in the presence of (S)-N-Hydroxy-4-(2-(1-methyl-6-(p-toly1)-4H-benzo[f](1,2,4)-triazolo-(4,3-a][1,4]diazepin-4-yl)acetamido)benzamide by checkerboard microdilution method; type: functional
Candida albicans [7] = test: as §1, with “0304103” for “9172”; type: functional
Candida albicans [8] = test: as §1, with “9884” for “9172”; type: functional
Cryptococcus neoformans = test: Antifungal activity against Cryptococcus neoformans 011405 assessed as microbial growth inhibition; type: functional
Candida albicans [9] = test: Downregulation of GCA1 expression in Candida albicans 0304103 at 32 ug/mL incubated for 24 hrs by RT q-PCR analysis; type: functional; conditions: dose 32.0 µg/ml
Candida albicans [10] = test: Antibiofilm activity against FLC-resistant Candida albicans 0304103 assessed as reduction in fungal growth at 32 ug/mL and measured for 48 hrs by time-growth curve assay; type: functional, organism-based; conditions: dose 32.0 µg/ml

OC(Cn1cncn1)(Cn1cncn1)c1ccc(F)cc1F [FLUCONAZOLE]
MIC80 (Candida albicans [1]): 0.5 µg/mL | MIC80 (Candida albicans [2]): 0.5 µg/mL (≈ 1.63 µM) | Activity (Candida albicans [3]): inactive | MIC80 (Candida albicans [4]): 1 µg/mL | MIC80 (Candida albicans [5]): > 64 µg/mL | MIC80 (Candida albicans [6]): 1 µg/mL | MIC80 (Candida albicans [7]): 2 µg/mL | MIC80 (Candida albicans [8]): 0.25 µg/mL | MIC80 (Cryptococcus neoformans): 8 µg/mL (≈ 26.1 µM) | Activity (Candida albicans [9]): Active | Activity (Candida albicans [10]): inactive
